From patent publication US20240165113A1, “METHODS OF TREATMENT FOR LEUKEMIA” (DNA SEQ 2, Inc., priority 2021, published 2024) come the findings set out here.

Where two headings read alike, the source gives them in different places.

The target in the assay is T1, unphosphorylated ABL1(T315I)(229-499) (Homo sapiens, UniProt P00519, T315I).
T1 construct: The recombinant ABL1(T315I) (isoform 1a) residues 229-499 protein was designed with an N-terminal 10×His tag; made in house; host or cells: E. coli (co-expressed with YopH phosphatase and pGro7 chaperone)
T1 sequence (P00519 229-499 T315I): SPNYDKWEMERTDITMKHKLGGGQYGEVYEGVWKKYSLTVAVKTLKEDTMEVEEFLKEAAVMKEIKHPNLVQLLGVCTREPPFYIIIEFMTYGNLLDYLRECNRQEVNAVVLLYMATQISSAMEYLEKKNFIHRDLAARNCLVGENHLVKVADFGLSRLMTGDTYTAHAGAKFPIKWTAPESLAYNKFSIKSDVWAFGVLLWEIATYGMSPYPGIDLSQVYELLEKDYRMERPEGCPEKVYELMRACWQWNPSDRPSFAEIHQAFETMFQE
Put plainly: SPR binding to unphosphorylated ABL1(T315I)(229-499). The following applies: Ni-NTA capture of 10xHis-tag. Background: Surface plasmon resonance follows binding to a sensor surface in real time, without labels.

Regarding `Nc1nc(N)c(N=O)c(OCC2CCCCC2)n1` [A-0001, 6-Cyclohexylmethyloxy-5-nitroso-pyrimidine-2,4-diamine], the Kd (in general, the free concentration of one partner at which half of the binding sites on the other are occupied at equilibrium, for simple one-to-one binding) is 2 µM (HBST buffer, read-out: Unphosphorylated ABL1(T315I)(229-499) in HBST buffer KD) and 5 µM (PBST buffer, read-out: Unphosphorylated ABL1(T315I)(229-499) in PBST buffer KD).
